Drawing on ChEMBL document CHEMBL4190215, “Ochracenes A-I, Humulane-Derived Sesquiterpenoids from the Antarctic Fungus Aspergillus ochraceopetaliformis” (J Nat Prod, 2017), this text covers Activity, IC50 and inhibition for eleven compounds.

One assay deals with HL-60. As to the kind of experiment: Cytotoxicity against human HL60 cells assessed as reduction in cell viability up to 100 uM after 72 hrs by CCK-8 assay. In kind it is functional, cell-based.
A further assay concerns RAW264.7. The assay can be described thus: Inhibition of LPS-induced NO production in mouse RAW264.7 cells after 24 hrs by Griess assay. It is filed as functional, cell-based. The note with it: RAW264.7, 24 h. A general note: Nitrite, measured by Griess reagent, commonly stands in for NO production.
The subject of assay [1] is HT-29. The assay can be described thus: Cytotoxicity against human HT-29 cells assessed as reduction in cell viability up to 100 uM after 72 hrs by CCK-8 assay. It is filed as functional, cell-based.
The next assay has as its system K562. The assay can be described thus: Cytotoxicity against human K562 cells assessed as reduction in cell viability up to 100 uM after 72 hrs by CCK-8 assay. In kind it is functional, cell-based. (In general: Tetrazolium dyes change colour on reduction, which living cells bring about.)
For a further assay, the system named is DU-145. The assay can be described thus: Cytotoxicity against human DU145 cells assessed as reduction in cell viability up to 100 uM after 72 hrs by CCK-8 assay. In kind it is functional, cell-based.
In another assay the test system is MCF7. As to the kind of experiment: Cytotoxicity against human MCF7 cells assessed as reduction in cell viability up to 100 uM after 72 hrs by CCK-8 assay. In kind it is functional, cell-based.
Assay [2] has as its system Influenza A virus. The assay can be described thus: Antiviral activity against influenza A virus H1N1 assessed as inhibition of virus-induced cytopathic effect up to 100 uM after 48 hrs by crystal violet staining based assay. It is filed as functional, organism-based.
Assay [3] relates to Influenza A virus. The assay can be described thus: Antiviral activity against influenza A virus H3N2 assessed as inhibition of virus-induced cytopathic effect up to 100 uM after 48 hrs by crystal violet staining based assay. In kind it is functional, organism-based. (In general: Damage to the host cells serves as the signal in cytopathic effect assays.)
The test system of the next assay is A549. The assay can be described thus: Cytotoxicity against human A549 cells assessed as reduction in cell viability up to 100 uM after 72 hrs by CCK-8 assay. In kind it is functional, cell-based.
In another assay the test system is HeLa. As to the kind of experiment: Cytotoxicity against human HeLa cells assessed as reduction in cell viability up to 100 uM after 72 hrs by CCK-8 assay. It is filed as functional, cell-based.
Assay [4] concerns U-937. As to the kind of experiment: Cytotoxicity against human U937 cells assessed as reduction in cell viability up to 100 uM after 72 hrs by CCK-8 assay. In kind it is functional, cell-based.
The subject of assay [5] is U-937. As to the kind of experiment: Cytotoxicity against human U937 cells assessed as reduction in cell viability after 72 hrs by CCK-8 assay. In kind it is functional, cell-based. The following applies: U-937, 72 h.
Assay [6] deals with HT-29. As to the kind of experiment: Cytotoxicity against human HT-29 cells assessed as reduction in cell viability after 72 hrs by CCK-8 assay. The following applies: HT-29, 72 h. It is filed as functional, cell-based.

Molecules are shown by their SMILES. pIC50: −log10 of the molar value. Active and inactive are the calls of the source. The rule behind the calls is not given here.

One may read the pIC50 as the IC50 on a negative log10 scale, so that one unit is a factor of ten.

`CC1=CC([C@@H](CCCO)C(=O)O)=C(C)CC[C@@H]1C`: the outcome in the assay on HL-60, in the assay on HT-29 [1], with K562, in the assay on DU-145, in the assay on MCF7 and with A549 was inactive. The outcome with HeLa and with U-937 [4] was inactive. In the assay with RAW264.7, this compound had a negative-log IC50 (pIC50) of 4.84. Moreover, the inhibition entry with Influenza A virus [2] and in the assay on Influenza A virus [3] was “inactive” throughout.

On to `C[C@H]1CC[C@]2(C)C(=CCC[C@H]2O)C=C1C(=O)O`, for which the result with HL-60, in the assay with HT-29 [1], in the assay on K562, with DU-145, in the assay on MCF7 and with A549 was inactive. The outcome with HeLa and in the assay with U-937 [4] was inactive. In addition, the inhibition entry with Influenza A virus [2] and with Influenza A virus [3] was “inactive” throughout.

For `C[C@H]1CC[C@]2(C)C(=CCC[C@H]2O)C=C1CO`, the outcome with HL-60, with HT-29 [1], with K562, with DU-145, in the assay with MCF7 and in the assay with A549 was inactive. In addition, the result in the assay on HeLa and in the assay with U-937 [4] was inactive. The inhibition result with Influenza A virus [2] and with Influenza A virus [3] was “inactive” in each case.

Compound `C[C@@H]1C[C@H]2[C@@H]3CCC4=CC(=O)C=C[C@]4(C)[C@@]3(F)[C@@H](O)C[C@]2(C)[C@@]1(O)C(=O)CO` [DEXAMETHASONE] had a negative logarithm of the IC50 (pIC50) in the assay on RAW264.7 of 5.60.

`CC1=CC[C@@]2(C)[C@H](O)CC[C@@H](C(=O)O)[C@@H]2C=C1C`: the outcome in the assay on HL-60, in the assay on HT-29 [1], in the assay on K562, in the assay on DU-145, with MCF7 and in the assay with A549 was inactive. Further, the outcome with HeLa and with U-937 [4] was inactive. The inhibition result with Influenza A virus [2] and with Influenza A virus [3] was “inactive” throughout.

With `COC(OC)C1=CC2=CC(=O)C=C[C@]2(C)CC[C@@H]1C`, the result in the assay on HL-60, in the assay on HT-29 [1], in the assay on K562, in the assay with DU-145, in the assay with MCF7 and in the assay with A549 was inactive. In addition, the result in the assay with HeLa and with U-937 [4] was inactive. Further, the inhibition result in the assay with Influenza A virus [2] and in the assay on Influenza A virus [3] was “inactive” throughout.

For `CC(=O)O[C@H]1C(=O)[C@@]2(C)[C@H]([C@H](OC(=O)c3ccccc3)[C@]3(O)C[C@H](OC(=O)[C@H](O)[C@@H](NC(=O)c4ccccc4)c4ccccc4)C(C)=C1C3(C)C)[C@]1(OC(C)=O)CO[C@@H]1C[C@@H]2O` [PACLITAXEL], the figures for the pIC50 in the assay on U-937 [5] and in the assay with HT-29 [6] were 8.77 and 8.52, respectively.

For the compound `C[C@H]1CC[C@@]2(C)C=CC(=O)C=C2C=C1C=O`, the result in the assay on HL-60, in the assay on HT-29 [1], in the assay on K562, with DU-145, in the assay on MCF7 and in the assay with A549 was inactive. Also, the result in the assay on HeLa and with U-937 [4] was inactive. Further, the inhibition result with Influenza A virus [2] and in the assay with Influenza A virus [3] was “inactive” each time.

In the case of `C[C@H]1CC[C@@]2(C)C=CC(=O)C=C2C=C1CO`, the outcome in the assay with HL-60, in the assay with HT-29 [1], in the assay with K562, in the assay with DU-145, with MCF7 and in the assay on A549 was inactive. For the same compound, the outcome in the assay on HeLa and in the assay with U-937 [4] was inactive. Moreover, the inhibition entry with Influenza A virus [2] and with Influenza A virus [3] was “inactive” each time.

For the compound `C[C@H]1CC[C@@]2(C)C=CC(=O)C=C2C=C1C(=O)O`, the result in the assay on HL-60, in the assay on HT-29 [1], with K562, with DU-145, in the assay with MCF7 and in the assay on A549 was inactive. For the same compound, the outcome in the assay on HeLa and in the assay with U-937 [4] was inactive. Moreover, the inhibition entry with Influenza A virus [2] and in the assay with Influenza A virus [3] was “inactive” each time.

As for `CC1=CC([C@@H](CCC(=O)O)C(=O)O)=C(C)CC[C@@H]1C`, the result in the assay with HL-60, with HT-29 [1], in the assay with K562, with DU-145, in the assay with MCF7 and with A549 was inactive. Moreover, the outcome in the assay on HeLa and in the assay on U-937 [4] was inactive. Besides, the pIC50 with RAW264.7 is 4.74. Further, the inhibition entry in the assay with Influenza A virus [2] and in the assay with Influenza A virus [3] was “inactive” in each case.
